Laboratory results published in patent US11566007B2, “Ras inhibitors” (Revolution Medicines, Inc., priority 2019, dated 2023).

Tests used:
NRAS WT = NRAS WT (Homo sapiens (Human), UniProt P01111+P62937); assay: Ras-Raf (BRAF RBD) disruption / FRET / MOA assay, NRAS WT; assay type: biochemical; conditions: read-out: IC50* NRAS WT FRET data
How it was run: (§1)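 Compounds (30 μM top final, 10-point 3-fold dilutions) incubated 3 h at 25° C with nucleotide-loaded Ras, cyclophilin A and BRAF RBD. Detection with 10 nM anti-His Eu-W1024 and 50 nM anti-GST allophycocyanin over another 1.5 h. Lowered TR-FRET ratio relative to DMSO wells gives IC50.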

[1] = system: NCI-H358 cells (K-Ras G12C); assay: Potency assay: pERK in NCI-H358 cells; assay type: cell-based, human; conditions: Homo sapiens, NCI-H358; H358 KRAS G12C; read-out: pERK EC50
How it was run: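 Inhibition of cellular pERK after a 4 h treatment, detected by AlphaLISA or In-Cell Western. IC50 from a four-parameter concentration-response fit.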

NRAS Q61R = NRAS Q61R (Homo sapiens (Human), UniProt P01111+P62937, Q61R); assay: Ras-Raf (BRAF RBD) disruption / FRET / MOA assay, NRAS Q61R; assay type: biochemical; conditions: NRAS Q61R; Ras-Raf disruption/FRET/MOA assay; read-out: IC50* NRAS Q61R FRET data
How it was run: as §1

K-Ras G13C = K-Ras G13C (Homo sapiens (Human), UniProt P01116+P62937, G13C); assay: Ras-Raf (BRAF RBD) disruption / FRET / MOA assay, KRAS G13C; assay type: biochemical; conditions: KRAS G13C; Ras-Raf disruption/FRET/MOA assay; read-out: IC50* KRAS G13C FRET data
How it was run: (§2)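 A 10-point, 3-fold dilution series topping at 30 μM final was incubated 3 h at 25° C with the Ras/cyclophilin A/BRAF RBD mixture.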

NRAS G12C = NRAS G12C (Homo sapiens (Human), UniProt P01111+P62937, G12C); assay: Ras-Raf (BRAF RBD) disruption / FRET / MOA assay, NRAS G12C; assay type: biochemical; conditions: read-out: IC50* NRAS G12C FRET data
How it was run: as §2

KRAS Q61H = KRAS Q61H (Homo sapiens (Human), UniProt P01116+P62937, Q61H); assay: Ras-Raf (BRAF RBD) disruption / FRET / MOA assay, KRAS Q61H; assay type: biochemical; conditions: Ras-Raf disruption/FRET/MOA assay; class symbols; read-out: KRAS Q61H FRET data IC50
How it was run: as §1

Sequence of NRAS WT (P01111 whole entry): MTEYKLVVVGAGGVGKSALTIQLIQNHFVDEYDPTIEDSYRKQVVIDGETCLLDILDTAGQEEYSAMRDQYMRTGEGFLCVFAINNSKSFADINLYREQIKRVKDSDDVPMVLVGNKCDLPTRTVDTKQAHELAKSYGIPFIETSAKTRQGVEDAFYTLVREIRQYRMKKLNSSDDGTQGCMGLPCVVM
Sequence of NRAS WT (P62937 whole entry): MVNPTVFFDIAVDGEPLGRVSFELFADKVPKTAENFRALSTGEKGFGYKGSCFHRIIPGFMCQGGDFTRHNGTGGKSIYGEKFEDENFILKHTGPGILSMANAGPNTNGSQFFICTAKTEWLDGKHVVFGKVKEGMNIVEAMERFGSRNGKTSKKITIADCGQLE
Sequence of K-Ras G13C (P01116-2 other isoform, or with tags, fused parts or gaps G13C): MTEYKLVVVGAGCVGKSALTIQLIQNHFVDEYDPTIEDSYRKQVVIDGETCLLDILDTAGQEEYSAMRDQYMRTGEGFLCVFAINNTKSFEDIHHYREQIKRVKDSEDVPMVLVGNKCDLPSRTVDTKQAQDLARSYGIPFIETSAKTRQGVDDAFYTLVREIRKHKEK
Sequence of K-Ras G13C (P62937 whole entry): as the sequence (P62937 whole entry) above
Sequence of NRAS Q61R (P01111 whole entry Q61R): as the sequence (P01111 whole entry) above, with Q61R counted along it
Sequence of NRAS Q61R (P62937 whole entry): as the sequence (P62937 whole entry) above
Sequence of NRAS G12C (P01111 whole entry G12C): as the sequence (P01111 whole entry) above, with G12C counted along it
Sequence of NRAS G12C (P62937 whole entry): as the sequence (P62937 whole entry) above
Sequence of KRAS Q61H (P01116-2 other isoform, or with tags, fused parts or gaps Q61H): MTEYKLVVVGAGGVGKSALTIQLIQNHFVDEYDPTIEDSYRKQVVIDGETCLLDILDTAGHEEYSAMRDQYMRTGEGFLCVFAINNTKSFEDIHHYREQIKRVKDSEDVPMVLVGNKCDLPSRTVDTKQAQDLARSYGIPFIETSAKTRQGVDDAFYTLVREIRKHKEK
Sequence of KRAS Q61H (P62937 whole entry): as the sequence (P62937 whole entry) above

Row | SMILES | IC50 (NRAS WT) | EC50 [1] | IC50 (NRAS Q61R) | IC50 (K-Ras G13C) | IC50 (NRAS G12C) | IC50 (KRAS Q61H)
1 | C=CC(=O)N(C)CC1CN(C(=O)N(C)[C@H](C(=O)N[C@H]2Cc3nc(cs3)-c3ccc4c(c3)c(c(-c3cccnc3[C@H](C)OC)n4CC)CC(C)(C)COC(=O)[C@@H]3CCCN(N3)C2=O)C(C)C)C1 (atropisomer, axis not shown) [Example A368] | 10 to 100 nM | < 5000 nM | 10 to 100 nM | 100 to 1000 nM | 10 to 100 nM | 10 to 100 nM
2 | C=CC(=O)N1CC[C@]2(C1)OCN([C@H](C(=O)N[C@H]1Cc3cccc(c3)-c3ccc4c(c3)c(c(-c3cccnc3[C@H](C)OC)n4CC)CC(C)(C)COC(=O)[C@@H]3CCCN(N3)C1=O)C(C)C)C2=O (atropisomer, axis not shown) [Example A371] | 1000 to 10000 nM | < 5000 nM | > 10000 nM | 100 to 1000 nM | 10 to 100 nM | 1000 to 10000 nM
3 | CO[C@@H](C)c1ncccc1-c1c2c3cc(ccc3n1CC(F)(F)F)N1CCO[C@@H](C[C@H](NC(=O)[C@@H](COC3CN(C(=O)C#CC(C)(C)N(C)C)C3)C(C)C)C(=O)N3CCC[C@H](N3)C(=O)OCC(C)(C)C2)C1 (atropisomer, axis not shown) [Example A375, (2R)-2-(((1-(4-(dimethylamino)-4-methylpent-2-ynoyl)azetidin-3-yl)oxy)methyl)-N-((2^2S,6^3S,4S)-1^2-(2-((S)-1-methoxyethyl)pyridin-3-yl)-10,10-dimethyl-5,7-dioxo-1^1-(2,2,2-trifluoroethyl)-6^1,6^2,6^3,6^4,6^5,6^6-hexahydro-1^1H-8-oxa-2(4,2)-morpholina-1(5,3)-indola-6(1,3)-pyridazinacycloundecaphane-4-yl)-3-methylbutanamide] | 1000 to 10000 nM | < 5000 nM | > 10000 nM | 1000 to 10000 nM | < 10 nM | > 10000 nM
4 | C=CC(=O)N(C)[C@@H]1CCCN(C(=O)N(C)[C@H](C(=O)N[C@H]2Cc3nc(cs3)-c3ccc4c(c3)c(c(-c3cccnc3[C@H](C)OC)n4CC)CC(C)(C)COC(=O)[C@@H]3CCCN(N3)C2=O)C(C)C)C1 (atropisomer, axis not shown) [Example A382] | 10 to 100 nM | < 5000 nM | 10 to 100 nM | 100 to 1000 nM | 10 to 100 nM | 10 to 100 nM
5 | C=CC(=O)N(C)C1CCN(C(=O)N(C)[C@H](C(=O)N[C@H]2Cc3nc(cs3)-c3ccc4c(c3)c(c(-c3cccnc3[C@H](C)OC)n4CC)CC(C)(C)COC(=O)[C@@H]3CCCN(N3)C2=O)C(C)C)CC1 (atropisomer, axis not shown) [Example A383] | 10 to 100 nM | < 5000 nM | 10 to 100 nM | 10 to 100 nM | 10 to 100 nM | 10 to 100 nM
6 | C=CC(=O)N1C[C@@H](C)N(C(=O)N(C)[C@H](C(=O)N[C@H]2Cc3nc(cs3)-c3ccc4c(c3)c(c(-c3cccnc3[C@H](C)OC)n4CC)CC(C)(C)COC(=O)[C@@H]3CCCN(N3)C2=O)C(C)C)[C@H](C)C1 (atropisomer, axis not shown) [Example A388] | < 10 nM | < 5000 nM | < 10 nM | 10 to 100 nM | < 10 nM | < 10 nM
7 | C=CC(=O)N1C[C@@H]2CN(C(=O)N(C)[C@H](C(=O)N[C@H]3Cc4nc(cs4)-c4ccc5c(c4)c(c(-c4cccnc4[C@H](C)OC)n5CC)CC(C)(C)COC(=O)[C@@H]4CCCN(N4)C3=O)C(C)C)C[C@@H]2C1 (atropisomer, axis not shown) [Example A389] | 10 to 100 nM | < 5000 nM | 10 to 100 nM | 10 to 100 nM | 10 to 100 nM | 10 to 100 nM
8 | C=CC(=O)N(C)[C@@H]1CCN(C(=O)N(C)[C@H](C(=O)N[C@H]2Cc3nc(cs3)-c3ccc4c(c3)c(c(-c3cccnc3[C@H](C)OC)n4CC)CC(C)(C)COC(=O)[C@@H]3CCCN(N3)C2=O)C(C)C)C1 (atropisomer, axis not shown) [Example A416] | 100 to 1000 nM | < 5000 nM | 100 to 1000 nM | 100 to 1000 nM | 100 to 1000 nM | 10 to 100 nM
9 | C=CC(=O)N1CC[C@H](C(=O)N(C)[C@H](C(=O)N[C@H]2Cc3coc(n3)-c3ccc4c(c3)c(c(-c3cccnc3[C@H](C)OC)n4CC)CC(C)(C)COC(=O)[C@@H]3CCCN(N3)C2=O)C(C)C)C1 (atropisomer, axis not shown) [Example A468] | 1000 to 10000 nM | < 5000 nM | > 10000 nM | 1000 to 10000 nM | 100 to 1000 nM | 100 to 1000 nM
10 | C=CC(=O)N1CCN(C(=O)N(C)[C@H](C(=O)N[C@H]2Cc3nc(cs3)-c3ccc4c(c3)c(c(-c3cccnc3[C@H](C)OC)n4CC)CC(C)(C)COC(=O)[C@@H]3CCCN(N3)C2=O)C(C)C)CC1 (atropisomer, axis not shown) [Example A491] | 10 to 100 nM | < 5000 nM | 10 to 100 nM | 10 to 100 nM | 10 to 100 nM | 10 to 100 nM
